According to US20020173541A1, “Arthropod-controlling composition” (SUMITOMO CHEMICAL COMPANY, LIMITED, priority 2001, published 2002):

Test system: adult German cockroaches
Assay: Knock-down test: oil solution sprayed on adult German cockroaches
Format: in vivo, Blattella germanica (German cockroach)
Method: According to Production example 7, each of the 0.5% oil solutions of The Pyrone Compound and Reference compound 1 was prepared. A square of paper (side: 20 cm) was covered on the iron net set on the bottom of the metallic chamber (46 cm×46 cm, 70 cm in height). A container (8.75 cm in diameter, 7.5 cm in height, having 16-mesh net at the bottom and spreading butter on the wall for preventing escape) was set on the paper. In the container, ten (5 males and 5 females) adult German cockroaches were released. By means of spray gun, 1.5 ml of the above oil solution was applied to the test insects at pressure of 4.1×10^4 Pa from the upper part of the chamber. The container was taken out of the chamber 30 seconds after spraying and the test insects were transferred to a plastic cup. Two minutes after spraying, the knocked-down cockroaches were counted. According to Production example 7, each of the 0.25% oil solutions of The Pyrone Compound and Reference compounds 2 and 3 was prepared. The same procedures as Test Example 1 gave the knock-down percentages and KT50 values (minutes for knocked-down 50% of cockroaches) in Table 2.

[1] = 0.5% oil solution, 1.5 ml sprayed, knocked-down cockroaches counted two minutes after spraying
[2] = 0.25% oil solution, same procedures as Test Example 1, average of 6 (The Pyrone Compound) or 3 (references) repetitions

For `Cc1cc(O)c(C(=O)C(C)C)c(=O)o1` [Reference compound 1, 4-hydroxy-6-methyl-3-(2-methylpropanoyl)-2-pyrone], the “Knock-down percentage (%)” value [1] was 10%.

For `CCC(CC)C(=O)c1c(O)cc(C)oc1=O` [Reference compound 2, 4-hydroxy-6-methyl-3-(2-ethylbutanoyl)-2-pyrone], the “KT50 (minutes for knocked-down 50% of cockroaches)” value [2] was “more than 10 minutes” and the “Knock-down percentage (%)” value [2] was 0%.

For `Cc1cc(O)c(C(=O)C2CC2)c(=O)o1` [Reference compound 3, 4-hydroxy-6-methyl-3-(cyclopropanecarbonyl) -2-pyrone], the “KT50 (minutes for knocked-down 50% of cockroaches)” value [2] was “more than 10 minutes” and the “Knock-down percentage (%)” value [2] was 6.7%.

In the case of `Cc1cc(O)c(C(=O)CC(C)C)c(=O)o1` [The Pyrone Compound, 4-hydroxy-6-methyl-3-(3-methylbutanoyl)-2-pyrone], the “KT50 (minutes for knocked-down 50% of cockroaches)” value [2] is reported as 0.85 min, the “Knock-down percentage (%)” value [2] is reported as 95% and the “Knock-down percentage (%)” value [1] is reported as 100%.
